Laboratory results taken from publication PMC9225712, “Rational design of biodegradable sulphonamide candidates treating septicaemia by synergistic dual inhibition of COX-2/PGE2 axis and DHPS enzyme” (Journal of Enzyme Inhibition and Medicinal Chemistry, 2022).
Marks after values point to notes of the source that are not given here.

Experiments:
[1] = target: T1, ovine COX-1 (Ovis aries, UniProt P05979); experiment: In vitro COX-1 enzymatic assay (Cayman kit 560131); type: biochemical; conditions: Mean ± SEM of triplicate determinations
T1 construct: purchased Cayman Chemicals Inc. 560131
T1 sequence (P05979 25-600): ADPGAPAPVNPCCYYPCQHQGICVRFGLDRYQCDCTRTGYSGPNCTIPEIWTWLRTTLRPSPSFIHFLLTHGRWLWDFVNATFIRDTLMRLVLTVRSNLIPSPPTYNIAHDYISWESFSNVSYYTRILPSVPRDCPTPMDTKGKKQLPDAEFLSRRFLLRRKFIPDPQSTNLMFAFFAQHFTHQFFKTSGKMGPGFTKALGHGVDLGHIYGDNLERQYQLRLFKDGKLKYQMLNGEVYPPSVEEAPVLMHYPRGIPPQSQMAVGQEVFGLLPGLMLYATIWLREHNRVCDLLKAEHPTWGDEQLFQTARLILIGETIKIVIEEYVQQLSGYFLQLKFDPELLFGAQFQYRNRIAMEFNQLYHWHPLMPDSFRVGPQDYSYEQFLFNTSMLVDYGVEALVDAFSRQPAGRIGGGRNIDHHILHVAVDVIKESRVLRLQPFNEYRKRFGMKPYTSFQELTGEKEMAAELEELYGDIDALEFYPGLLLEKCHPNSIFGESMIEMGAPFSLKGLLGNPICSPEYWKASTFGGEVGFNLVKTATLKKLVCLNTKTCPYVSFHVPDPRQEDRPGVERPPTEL

[2] = system: gastric layers; experiment: Gastric ulcerogenic activity; conditions: fasted male Wistar rats, oral 30 µmol/kg twice at 4 h interval
[3] = system: Salmonella typhi (RCMB 0100104); experiment: Inhibition zone, agar cup diffusion; type: cell-based; conditions: Salmonella enterica, 24 h, read-out: inhibition zones (IZ) S. typhi
[4] = system: Shigella dysenteriae (RCMB 0100542); experiment: Inhibition zone, agar cup diffusion; type: cell-based; conditions: RCMB0100542, 24 h, read-out: inhibition zones (IZ) S. dysenteriae
[5] = system: Gram-positive and Gram-negative bacteria; experiment: In vitro antibacterial screening, whole panel; type: cell-based; conditions: whole bacterial panel, result in words
[6] = system: PGE2; experiment: Estimation of rat plasma PGE2; conditions: po 10 µmol/kg b.wt., 8 h after carrageenan; for % inhibition of PGE2-production: rat serum; for PGE2 serum conc.: rat, Mean ± SEM, n = 5
[7] = system: Staphylococcus aureus (RCMB 0100183); experiment: Inhibition zone, agar cup diffusion; conditions: RCMB0100183, 24 h, read-out: inhibition zones (IZ) S. aureus
[8] = system: Staphylococcus epidermidis (RCMB 0100183); experiment: Inhibition zone, agar cup diffusion; conditions: RCMB0100183, 24 h, read-out: inhibition zones (IZ) S. epidermidis
[9] = system: Streptococcus mutans (RCMB 0100172); experiment: Inhibition zone, agar cup diffusion; conditions: RCMB0100172, 24 h, read-out: inhibition zones (IZ) S. mutans
[10] = system: Bacillus subtilis (RCMB 0100162); experiment: Inhibition zone, agar cup diffusion; conditions: RCMB0100162, 24 h, read-out: inhibition zones (IZ) B. subtillis
[11] = system: Pseudomonas aeruginosa (RCMB 0100243); experiment: Inhibition zone, agar cup diffusion; conditions: RCMB0100243, 24 h, read-out: inhibition zones (IZ) P.aeruginosa
[12] = system: Escherichia coli (RCMB 010052); experiment: Inhibition zone, agar cup diffusion; conditions: RCMB010052, 24 h, read-out: inhibition zones (IZ) E.coli
[13] = system: Proteus vulgaris (RCMB 010085); experiment: Inhibition zone, agar cup diffusion; conditions: RCMB010085, 24 h, read-out: inhibition zones (IZ) P. vulgaris
[14] = system: carrageenan-induced paw edoema; experiment: Carrageenan-induced paw edoema in mice; conditions: for ED50: Mus musculus, 8 h, read-out: ED50 (95% confidence level); for Thickness of edoema 0h / percentage anti-inflammatory activity (AI%) 2h / Thickness of edoema 2h / percentage anti-inflammatory activity (AI%) 4h / Thickness of edoema 4h / percentage anti-inflammatory activity (AI%) 6h / Thickness of edoema 6h / Thickness of edoema 8h: mice, po 10 µmol/kg b.wt.; for Thickness of edoema 0h: 0 h (before carrageenan); for Thickness of edoema 0h / Thickness of edoema 2h / Thickness of edoema 4h / Thickness of edoema 6h / Thickness of edoema 8h: Mean ± SEM, n = 5; for Thickness of edoema 2h: 2 h after carrageenan; for Thickness of edoema 4h: 4 h after carrageenan; for Thickness of edoema 6h: 6 h after carrageenan; for Thickness of edoema 8h: 8 h after carrageenan
[15] = target: T2, human recombinant COX-2 (Homo sapiens, UniProt P35354); experiment: In vitro COX-2 enzymatic assay (Cayman kit 560131); conditions: for SI COX-1/COX-2: COX-2 selectivity index: COX-1 IC50/COX-2 IC50
T2 sequence (P35354 18-604): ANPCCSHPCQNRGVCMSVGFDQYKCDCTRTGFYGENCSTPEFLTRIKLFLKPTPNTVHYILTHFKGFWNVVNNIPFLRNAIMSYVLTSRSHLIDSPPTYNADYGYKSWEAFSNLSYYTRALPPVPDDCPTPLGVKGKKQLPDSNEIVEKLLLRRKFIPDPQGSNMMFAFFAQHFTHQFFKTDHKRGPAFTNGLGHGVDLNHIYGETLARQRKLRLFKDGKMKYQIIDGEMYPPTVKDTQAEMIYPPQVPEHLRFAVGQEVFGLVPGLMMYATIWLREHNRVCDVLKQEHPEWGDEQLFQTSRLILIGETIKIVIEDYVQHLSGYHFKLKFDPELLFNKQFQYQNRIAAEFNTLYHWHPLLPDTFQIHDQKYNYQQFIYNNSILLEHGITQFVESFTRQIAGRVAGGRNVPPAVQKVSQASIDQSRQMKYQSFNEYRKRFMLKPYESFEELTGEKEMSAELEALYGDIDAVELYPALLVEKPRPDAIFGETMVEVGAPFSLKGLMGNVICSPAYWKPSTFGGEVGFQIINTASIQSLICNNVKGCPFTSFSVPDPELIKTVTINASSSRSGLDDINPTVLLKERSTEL

[16] = system: S. aureus Smith; conditions: for ED50: Staphylococcus aureus, in Mus musculus, read-out: ED50 against S. aureus infection; for ED50, protective effect against bacteremic infection, Staphylococcus aureus: mice, challenge dose 9.5x10^6 CFU/mouse ip, intragastric once a day for 7 days, survival
[17] = system: E. coli C11; conditions: for ED50, protective effect against bacteremic infection, Escherichia coli: mice, challenge dose 7.1x10^3 CFU/mouse ip, intragastric once a day for 7 days, survival; for ED50: Escherichia coli, C11, in Mus musculus, read-out: ED50 against E.coli infection

SMILES	IC50 [1] [µM]	Gastric ulcerogenic effect, histopathological examination of gastric layers [2]	zone of inhibition at 1000 µg/mL [3] [mm]	zone of inhibition at 1000 µg/mL [4] [mm]	in vitro antibacterial activity [5]	% inhibition of PGE2-production [6] [%]	PGE2 serum conc. [6] [pg/mL]	zone of inhibition at 1000 µg/mL [7] [mm]	zone of inhibition at 1000 µg/mL [8] [mm]	zone of inhibition at 1000 µg/mL [9] [mm]	zone of inhibition at 1000 µg/mL [10] [mm]	ED50 [14] [µmol/kg]	Thickness of edoema 0h [14] [mm]	percentage anti-inflammatory activity (AI%) 2h [14]	Thickness of edoema 2h [14]	percentage anti-inflammatory activity (AI%) 4h [14]	Thickness of edoema 4h [14]	percentage anti-inflammatory activity (AI%) 6h [14]	Thickness of edoema 6h [14]	Thickness of edoema 8h [14]	further results
Cc1ccnc(NS(=O)(=O)c2ccc(/N=N/c3ccc(O)c(C(=O)N4CCOCC4)c3)cc2)n1 [Compound 5o, 4-((4-Hydroxy-3-(morpholine-4-carbonyl)phenyl)diazenyl)-N-(4-methylpyrimidin-2-yl) benzenesulfonamide]	12.9 ± 0.05	erosion in the gastric layers	18	23	weak in vitro antibacterial activity	72.92	357.636 ± 7.48	21	35	27	20	13.3	0.65 ± 0.004	(6.32%)	0.89 ± 0.01^c mm	(43.06%)	0.82 ± 0.02^c mm	(63.41%)	0.75 ± 0.02^c mm	0.64 ± 0.02^c mm	zone of inhibition at 1000 µg/mL [11]: 18 mm; zone of inhibition at 1000 µg/mL [12]: 16 mm; zone of inhibition at 1000 µg/mL [13]: 19 mm; IC50 [15]: 0.06 ± 0.0008 µM; SI COX-1/COX-2 [15]: 211.5; ED50 [16]: 353 to 413 µmol/kg; ED50, protective effect against bacteremic infection, Staphylococcus aureus [16]: 352.7 µmol/kg/day; ED50, protective effect against bacteremic infection, Escherichia coli [17]: 306.4 µmol/kg/day
O=C(O)Cc1ccccc1Nc1c(Cl)cccc1Cl [Diclofenac sodium, reference compound]	–	erosion in the gastric layers	–	–	–	79.10	276.052 ± 5.60	–	–	–	–	11.5	0.69 ± 0.004	(-11.58%)	1.06 ± 0.03^c mm	(38.19%)	0.89 ± 0.01^c mm	(60.98%)	0.80 ± 0.01^c mm	0.71 ± 0.01^c mm	Gastric ulcerogenic effect, monitoring of isolated stomachs [2]: signs of gastric ulcers and hyperaemia
O=C(c1cc(/N=N/c2ccc(S(=O)(=O)Nc3ncccn3)cc2)ccc1O)N1CCCCC1 [Compound 5j, 4-((4-Hydroxy-3-(piperidine-1-carbonyl)phenyl)diazenyl)-N-(pyrimidin-2-yl) benzenesulfonamide]	12.2 ± 0.06	gastrointestinal safety profile	15	25	weak in vitro antibacterial activity	83.25	221.236 ± 4.62	28	30	27	19	10.9	0.67 ± 0.02	(15.79%)	0.80 ± 0.01^c mm	(51.39%)	0.70 ± 0.01^c mm	(70.73%)	0.60 ± 0.01^c mm	0.53 ± 0.01^c mm	zone of inhibition at 1000 µg/mL [11]: 16 mm; zone of inhibition at 1000 µg/mL [12]: 14 mm; zone of inhibition at 1000 µg/mL [13]: 17 mm; IC50 [15]: 0.05 ± 0.0005 µM; SI COX-1/COX-2 [15]: 239.2; ED50 [16]: 302 µmol/kg; ED50, protective effect against bacteremic infection, Staphylococcus aureus [16]: 302.1 µmol/kg/day; ED50 [17]: 273 µmol/kg; ED50, protective effect against bacteremic infection, Escherichia coli [17]: 272.7 µmol/kg/day
CCCCNC(=O)c1cc(/N=N/c2ccc(S(=O)(=O)Nc3nccs3)cc2)ccc1O [Compound 5b, N-Butyl-2-hydroxy-5-((4-(N-(thiazol-2-yl)sulfamoyl)phenyl)diazenyl) benzamide]	12.2 ± 0.06	gastrointestinal safety profile	14	22	weak in vitro antibacterial activity	65.70	452.954 ± 6.48	29	34	27	20	18.7	0.68 ± 0.01	(0%)	0.95 ± 0.04 mm	(20.83%)	1.19 ± 0.01 mm	(45.85%)	1.11 ± 0.01 mm	1.01 ± 0.02 mm	zone of inhibition at 1000 µg/mL [11]: 16 mm; zone of inhibition at 1000 µg/mL [12]: 14 mm; zone of inhibition at 1000 µg/mL [13]: 19 mm; IC50 [15]: 0.07 ± 0.0005 µM; SI COX-1/COX-2 [15]: 187.7; ED50 [16]: 413 µmol/kg; ED50, protective effect against bacteremic infection, Staphylococcus aureus [16]: 413.1 µmol/kg/day; ED50 [17]: 416 µmol/kg; ED50, protective effect against bacteremic infection, Escherichia coli [17]: 415.7 µmol/kg/day
